Test results reported in patent publication US12540131B2 (Merck Sharp & Dohme LLC, priority 2019, dated 2026).

target: GST tagged truncated human mutant G2019S LRRK2 (Homo sapiens (Human), UniProt Q5S007, G2019S); assay: LRRK2 Km ATP LanthaScreen Assay; type: biochemical; settings: G2019S LRRK2, 134 μM ATP (Km ATP), mean values
Procedure, shortened: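 Enzyme (GST-tagged, truncated) was preincubated with compound for 15 min at RT in 50 mM Tris pH 8.5, 10 mM MgCl2, 0.01% Brij-35, 1 mM EGTA, 2 mM DTT and 0.05 mM orthovanadate. Fluorescein-LRRKtide and 134 μM ATP (Km) were then added for 90 min. EDTA and Tb-anti-pERM antibody stopped the reaction; the TR-FRET 520/495 ratio gave 4-parameter IC50s, reported as mean pIC50.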

GST tagged truncated human mutant G2019S LRRK2, sequence (Q5S007 970-2527 G2019S): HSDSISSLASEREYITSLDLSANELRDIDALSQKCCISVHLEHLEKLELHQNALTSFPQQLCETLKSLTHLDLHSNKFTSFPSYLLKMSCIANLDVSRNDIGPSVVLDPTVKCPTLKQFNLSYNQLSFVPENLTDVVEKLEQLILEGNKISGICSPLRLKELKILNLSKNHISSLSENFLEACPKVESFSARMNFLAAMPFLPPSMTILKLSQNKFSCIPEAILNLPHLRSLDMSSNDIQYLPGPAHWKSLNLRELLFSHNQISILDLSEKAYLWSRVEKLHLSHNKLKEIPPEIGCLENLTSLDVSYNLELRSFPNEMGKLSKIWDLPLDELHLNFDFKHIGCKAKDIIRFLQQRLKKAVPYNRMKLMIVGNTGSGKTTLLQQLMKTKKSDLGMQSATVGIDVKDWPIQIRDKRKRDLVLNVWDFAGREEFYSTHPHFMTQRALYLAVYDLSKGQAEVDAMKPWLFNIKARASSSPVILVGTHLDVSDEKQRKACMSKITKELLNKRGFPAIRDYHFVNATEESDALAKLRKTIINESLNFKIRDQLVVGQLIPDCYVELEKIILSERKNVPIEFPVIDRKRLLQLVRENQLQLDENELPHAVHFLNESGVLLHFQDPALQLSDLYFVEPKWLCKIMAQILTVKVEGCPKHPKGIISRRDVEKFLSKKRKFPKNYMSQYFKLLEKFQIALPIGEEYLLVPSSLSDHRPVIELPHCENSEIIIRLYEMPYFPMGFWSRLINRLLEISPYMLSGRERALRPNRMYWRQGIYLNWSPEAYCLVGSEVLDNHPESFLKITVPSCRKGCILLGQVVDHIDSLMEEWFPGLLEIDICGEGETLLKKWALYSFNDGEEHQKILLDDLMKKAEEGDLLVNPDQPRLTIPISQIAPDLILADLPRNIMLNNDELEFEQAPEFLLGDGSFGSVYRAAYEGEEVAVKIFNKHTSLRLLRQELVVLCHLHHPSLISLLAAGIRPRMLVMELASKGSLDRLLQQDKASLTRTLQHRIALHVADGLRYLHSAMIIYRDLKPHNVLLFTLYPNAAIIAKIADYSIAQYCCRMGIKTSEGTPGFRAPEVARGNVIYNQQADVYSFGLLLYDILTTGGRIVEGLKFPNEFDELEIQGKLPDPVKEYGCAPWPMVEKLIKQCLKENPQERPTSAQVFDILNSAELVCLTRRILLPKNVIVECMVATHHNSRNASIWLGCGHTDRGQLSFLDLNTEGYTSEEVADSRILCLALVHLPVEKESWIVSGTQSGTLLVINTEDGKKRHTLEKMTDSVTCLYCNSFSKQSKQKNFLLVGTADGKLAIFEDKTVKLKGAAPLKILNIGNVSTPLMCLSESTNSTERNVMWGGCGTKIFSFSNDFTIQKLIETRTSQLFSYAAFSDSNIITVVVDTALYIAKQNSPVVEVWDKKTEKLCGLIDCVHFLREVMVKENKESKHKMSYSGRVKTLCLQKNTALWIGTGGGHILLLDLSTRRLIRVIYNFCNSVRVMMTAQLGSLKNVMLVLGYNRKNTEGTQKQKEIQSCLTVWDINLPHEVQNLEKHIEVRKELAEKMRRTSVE

SMILES	LRRK2 pIC50
Cc1cc2cnc(Nc3cnn(C45CC(C4)C5)c3Cl)nc2cc1[C@H]1CCN([C@H]2COC[C@H]2O)C[C@@H]1F (single isomer, unassigned) [Ex-8.36, (3S,4S)(3S,4S) or (3S,4S)(3R,4R) or (3R,4R)(3S,4S) or (3R,4R)(3R,4R) 4-[4-(2-{[1-(bicyclo[1.1.1]pentan-1-yl)-5-chloro-1H-pyrazol-4-yl]amino}-6-methylquinazolin-7-yl)-3-fluoropiperidin-1-yl]oxolan-3-ol]	8.38
Cc1cc(Nc2ncc3cc(C)c(C4CCN([C@]5(C)COC[C@@H]5O)CC4)cc3n2)n(C)n1 (single isomer, unassigned) [Ex-5.13, (3S,4S)(3S,4S) or (3S,4S)(3R,4R) or (3R,4R)(3S,4S) or (3R,4R)(3R,4R) 4-(4-{2-[(1,3-dimethyl-1H-pyrazol-5-yl)amino]-6-methylquinazolin-7-yl}piperidin-1-yl)-4-methyloxolan-3-ol]	9.00
[2H]C1(N2CCC(c3cc4nc(Nc5cnn(CC(C)(C)O)c5Cl)ncc4cc3Cl)CC2)COC1 [Ex-4.59, 1-(5-chloro-4-((6-chloro-7-(1-(oxetan-3-yl-3-d)piperidin-4-yl)quinazolin-2-yl)amino)-1H-pyrazol-1-yl)-2-methylpropan-2-ol]	>9.20
N#CCCN1CCC(c2cc3nc(Nc4cnn(C5CC5)c4Cl)ncc3cc2Cl)CC1 [Ex-8.6, 3-(4-{6-chloro-2-[(5-chloro-1-cyclopropyl-1H-pyrazol-4-yl)amino]quinazolin-7-yl}piperidin-1-yl)propanenitrile]	8.17
CC1(n2ncc(Nc3ncc4cc(Cl)c(C5(F)CCN(C6COC6)CC5)cc4n3)c2Cl)CC1 [Ex-4.24, 6-chloro-N-[5-chloro-1-(1-methylcyclopropyl)-1H-pyrazol-4-yl]-7-[4-fluoro-1-(oxetan-3-yl)piperidin-4-yl]quinazolin-2-amine]	>9.20
Cc1c(Nc2ncc3cc(Cl)c([C@@H]4CCN([C@@H]5COC[C@@H]5O)C[C@H]4F)cc3n2)cnn1C1CC1(F)F (single isomer, unassigned) [Ex-4.181, (R)(3S,4S)(3S,4S) or (R)(3S,4S)(3R,4R) or (R)(3R,4R)(3S,4S) or (R)(3R,4R)(3R,4R) or (S)(3S,4S)(3S,4S) or (S)(3S,4S)(3R,4R) or (S)(3R,4R)(3S,4S) or (S)(3R,4R)(3R,4R) 4-(4-(6-chloro-2-((1-(2,2-difluorocyclopropyl)-5-methyl-1H-pyrazol-4-yl)amino)quinazolin-7-yl)-3-fluoropiperidin-1-yl)tetrahydrofuran-3-olyl]amino}quinazolin-7-yl)-3-fluoropiperidin-1-yl]oxolan-3-ol]	>9.20
CC1(Cn2ncc(Nc3ncc4cc(Cl)c([C@H]5CCN(C6COC6)C[C@@H]5F)cc4n3)c2Cl)COC1 (single isomer, unassigned) [Ex-2.12, (3S,4S) or (3R,4R) 6-chloro-N-{5-chloro-1-[(3-methyloxetan-3-yl)methyl]-1H-pyrazol-4-yl}-7-[3-fluoro-1-(oxetan-3-yl)piperidin-4-yl]quinazolin-2-amine]	>9.20
CC1CC(c2cc3nc(Nc4cnn(C5CC5)c4Cl)ncc3cc2Cl)CCN1C1COC1 (single isomer, unassigned) [Ex-4.107, (2S,4S) or (2R,4R) or (2S,4R) or (2R,4S) 6-chloro-N-(5-chloro-1-cyclopropyl-1H-pyrazol-4-yl)-7-(2-methyl-1-(oxetan-3-yl)piperidin-4-yl)quinazolin-2-amine]	8.52
N#CCCN1CCC(c2cc3nc(Nc4cnn(CC(F)F)c4Cl)ncc3cc2Cl)CC1 [Ex-4.95, 3-[4-(6-chloro-2-{[5-chloro-1-(2,2-difluoroethyl)-1H-pyrazol-4-yl]amino}quinazolin-7-yl)piperidin-1-yl]propanenitrile]	>9.20
Cc1cc2cnc(Nc3cnn(C4CC4)c3Cl)nc2cc1C1CCN([C@]2(C)COC[C@@H]2O)CC1 (single isomer, unassigned) [Ex-2.37, (3S,4S) or (3R,4R) 4-(4-{2-[(5-chloro-1-cyclopropyl-1H-pyrazol-4-yl)amino]-6-methylquinazolin-7-yl}piperidin-1-yl)-4-methyloxolan-3-ol]	7.78
Cc1c(Nc2ncc3cc(Cl)c(C4CCN(C5COC5)CC4)cc3n2)cnn1CC1(C#N)CC1 [Ex-2.15, 1-{[4-({6-chloro-7-[1-(oxetan-3-yl)piperidin-4-yl]quinazolin-2-yl}amino)-5-methyl-1H-pyrazol-1-yl]methyl}cyclopropane-1-carbonitrile]	>9.20
CC1(CN2CCC(c3cc4nc(Nc5cnn(C6CC6)c5Cl)ncc4cc3Cl)CC2)COC1 [Ex-4.20, 6-chloro-N-(5-chloro-1-cyclopropyl-1H-pyrazol-4-yl)-7-{1-[(3-methyloxetan-3-yl)methyl]piperidin-4-yl}quinazolin-2-amine]	8.11
Cc1cc2cnc(Nc3cnn(C4CC4)c3Cl)nc2cc1[C@@H]1CCN([C@]2(C)COC[C@@H]2O)C[C@H]1F (single isomer, unassigned) [Ex-4.149, (3S,4S)(3S,4S) or (3S,4S)(3R,4R) or (3R,4R)(3S,4S) or (3R,4R)(3R,4R) 4-(4-{2-[(5-chloro-1-cyclopropyl-1H-pyrazol-4-yl)amino]-6-methylquinazolin-7-yl}-3-fluoropiperidin-1-yl)-4-methyloxolan-3-ol]	>9.20
Cn1ncc(Nc2ncc3cc(Cl)c(C4CCN([C@H]5COC[C@H]5O)CC4)cc3n2)c1Cl (single isomer, unassigned) [Ex-2.66, (3S,4S) or (3R,4R) 4-(4-{6-chloro-2-[(5-chloro-1-methyl-1H-pyrazol-4-yl)amino]quinazolin-7-yl}piperidin-1-yl)oxolan-3-ol]	>9.20
Cc1cc(Nc2ncc3cc(Cl)c([C@@H]4CCN(C5COC5)C[C@H]4F)cc3n2)sn1 (single isomer, unassigned) [Ex-4.50, (3S,4S) or (3R,4R) 6-chloro-7-[3-fluoro-1-(oxetan-3-yl)piperidin-4-yl]-N-(3-methyl-1,2-thiazol-5-yl)quinazolin-2-amine]	>9.20
OC1CCCC1N1CC[C@H](c2cc3nc(Nc4cnn(C5CC5)c4Cl)ncc3cc2Cl)[C@@H](F)C1 (single isomer, unassigned) [Ex-4.158, (1S,2R)(3S,4S) or (1R,2S)(3S,4S) or (1R,2R)(3S,4S) or (1S,2S)(3S,4S) or (1S,2R)(3R,4R) or (1R,2S)(3R,4R) or (1R,2R)(3R,4R) or (1S,2S)(3R,4R) 2-(4-{6-chloro-2-[(5-chloro-1-cyclopropyl-1H-pyrazol-4-yl)amino]quinazolin-7-yl}-3-fluoropiperidin-1-yl)cyclopentan-1-ol]	8.99

same assay, conditions: G2019S LRRK2, 134 μM ATP (Km ATP), mean values; read-out: LRRK2 pIC50 (converted)

SMILES	IC50
Cc1cc2cnc(Nc3cnn(C4CC4(F)F)c3Cl)nc2cc1C1CCN([C@@H]2COC[C@@H]2O)CC1 (stereo in doubt) [Ex-2.34, 4-[4-(2-{[5-chloro-1-(2,2-difluorocyclopropyl)-1H-pyrazol-4-yl]amino}-6-methylquinazolin-7-yl)piperidin-1-yl]oxolan-3-ol]	< 631 pM
